Values after ≈ are worked out from the molar mass of the structure shown. Like-named read-outs stand apart in the source and are kept apart here. Where a SMILES comes first, the peptide text is derived from it. Bridges are numbered along the chain shown (N, C = ends). [ ]: non-standard residue; d: D form. The star is where a group is joined. Bip = N[C@@H](Cc1ccc(-c2ccccc2)cc1)C(=O)O; 2Nal = N[C@@H](Cc1ccc2ccccc2c1)C(=O)O; X1 = CC[C@H](C)CCCCC(=O)*; Dab = NCC[C@H](N)C(=O)O; Hexanoyl = CCCCCC(=O)*; AEEA = NCCOCCOCC(=O)O; Butyryl = CCCC(=O)*
Key:
S. aureus ATCC 29213 = assay: microbe, parasite or virus in culture; format: cell-based, Staphylococcus aureus; settings: Staphylococcus aureus, ATCC29213, read-out: Minimum inhibitory concentration, SA
Protocol: (§1) In the original report on S3(B), MIC experiments were carried out by using non-cation-adjusted MHB-I media. To this, bovine serum albumin (BSA) and acetic acid were added. The rationale for choosing a medium without cations is that cation-adjusted media (MHB-II) in some cases causes substantial inhibition of the activity of cationic peptides. Furthermore, some peptides are at risk of precipitation when diluted into MHB medium, which can be avoided via the addition of BSA and acetic acid. However, the use of MHB-II is favorable to imitate the in vivo conditions as much as possible. Both media were tested with and without the addition of BSA and acetic acid by trial and error. […]
(§2) Cation-adjusted Mueller-Hinton broth (MHB-II) media (BD BBLTM Beef extract powder, BD BactoTMCasamino acids, and DIFCO soluble starch was from Becton, Dickinson and Company©, Franklin Lakes, NJ, USA). […] A VersaMaxTM Tunable Microplate Reader (Molecular Devices LLC, Sunnyvale, CA, USA) was used and the data were evaluated on a Softmax® Pro (Molecular Devices LLC).
(§3) The MIC experiments were performed according to a protocol adapted from Wiegand et al., with minor modifications. The MICs were determined in triplicate. […] The MIC values were visually evaluated, and the MIC was set to the lowest concentration […] based on triplicate measurements. […]

[1] = Hydrophobicity by analytical RP-HPLC (%B at peak elution); format: physicochemical; settings: chromatographic, percentage of mobile phase B at the peak elution time
Source text: To investigate the effect of attaching fatty acids to a macrocycle, fatty acid tails of different lengths were used. When the carbon chain was elongated, the hydrophobicity of the peptide was increased gradually. Herein, the hydrophobicity is expressed as the percentage of mobile phase B at the peak elution time on an RP-HPLC system.

E. coli ATCC 25922 = format: cell-based, Escherichia coli; settings: MHB-II, inoculum 5 × 10^5 CFU/mL, 37 °C, 18–24 h, visual read-out, triplicate
Protocol: (§4) In the original report on S3(B), MIC experiments were carried out by using non-cation-adjusted MHB-I media. To this, bovine serum albumin (BSA) and acetic acid were added. The rationale for choosing a medium without cations is that cation-adjusted media (MHB-II) in some cases causes substantial inhibition of the activity of cationic peptides. Furthermore, some peptides are at risk of precipitation when diluted into MHB medium, which can be avoided via the addition of BSA and acetic acid. However, the use of MHB-II is favorable to imitate the in vivo conditions as much as possible. Both media were tested with and without the addition of BSA and acetic acid by trial and error. The use of pure MHB-II was compatible with S3(B) and its fatty acid analogues, and therefore was chosen for the MIC determinations. Noticeably, MHB-I with BSA and acetic acid led to precipitation of lipopeptides in the present work.
(§5) Cation-adjusted Mueller-Hinton broth (MHB-II) media (BD BBLTM Beef extract powder, BD BactoTMCasamino acids, and DIFCO soluble starch was from Becton, Dickinson and Company©, Franklin Lakes, NJ, USA). MHB media supplemented with 0.2% BSA was from Sigma Aldrich (St. Louis, MO, USA) and 0.01% acetic acid from VWR®. The 96 well plate cell-culture cluster, round-bottom, polypropylene plates, and V-shaped 96 well polypropylene plates were purchased from Corning® Inc., Costar®, Corning, NY, USA. Microseal® film was obtained from Bio-Rad Laboratories, Inc., Hercules, CA, USA. A VersaMaxTM Tunable Microplate Reader (Molecular Devices LLC, Sunnyvale, CA, USA) was used and the data were evaluated on a Softmax® Pro (Molecular Devices LLC).
(§6) The MIC experiments were performed according to a protocol adapted from Wiegand et al., with minor modifications. The MICs were determined in triplicate. The peptides were dissolved in Milli-Q water to produce 10 mg/mL stock solutions in small glass containers. The bacterial isolates to be tested were streaked onto agar plates to obtain single colonies, and the plates were incubated at 37 °C for 18–24 h. The strains tested were S. aureus ATCC 29213, P. aeruginosa ATCC 27853, E. coli ATCC 25922, A. baumannii ATCC 19606, and K. pneumonia ATCC 13883. Test compounds were prepared in 2-fold dilutions in 50 μL volumes in polypropylene microtiter plates. Bacterial cultures grown to OD600 = 0.1–0.4 were diluted to a desired OD600 of 0.001–0.002 corresponding to 1 × 10^6 CFU/mL. Next, 50 μL bacterial suspension was added to the microtiter plates, giving a final bacterial inoculum of 5 × 10^5 CFU/mL per well. The plates were incubated at 37 °C for 18–24 h. […] The MIC values were visually evaluated, and the MIC was set to the lowest concentration […] based on triplicate measurements. […]

human erythrocytes = assay: Hemolysis of red blood cells; settings: 1 h; for %H, percent hemolytic activity against red blood cells at 150 μM: human erythrocytes, 0.5% v/v RBC suspension in PBS, peptide 150 μM, 37 °C, absorbance 414 nm, melittin positive control, triplicate
Protocol: The hemolysis experiments were performed according to the protocol described in Reference. The peptides were tested at concentrations from 2.35–150 μM, using melittin as positive control and PBS as negative control. One premade tablet of PBS was dissolved in 200 mL Milli-Q water. The solution was kept in the refrigerator for a maximum of two days. The day before the test, the positive control wells of the 96 well polypropylene plates were precoated with 150 μL of melittin 5 μM solution in PBS. The solution was prepared in Protein LoBind Eppendorf tubes. The day of the test, the solution was discarded and the wells were washed three times with 150 μL PBS. A melittin 2.50 μM solution in PBS was prepared in Protein LoBind Eppendorf tubes—500 μL for every plate to be used. The mass of the peptide needed to reach a final concentration of 300 μM (to start testing down from 150 μM) was calculated, since a volume of 500 μL was desirable. […] The peptides were dissolved in PBS and tested in triplicate.
In a 96 well polypropylene plate, 150 μL of peptide solution was transferred to three wells in Row A. Therefore, each plate could accommodate up to four peptides. A 2-fold serial dilution of the peptides was obtained by transferring 75 μL of the solutions from Row A to the corresponding wells in Row B, mixing a couple of times. From Row B, 75 μL was transferred to Row C and so on until Row G, where 75 μL was discarded after mixing. Volumes of 75 μL melittin (2.50 μM) was transferred to the positive control wells in H1–H6. Preparation of the RBC suspension: 1 mL of whole blood was transferred to a cryotube with 3 mL of PBS, and then it was gently mixed and centrifuged for 8 min at 3000 rpm. The supernatant was discarded, and the process was repeated twice; with 4 mL at 3000 rpm and 4 mL at 4000 rpm, respectively. From the final RBC pellet, 40 μL was transferred to 8 mL of PBS (multiplied by the number of test plates needed). This corresponded to a 0.5% v/v RBC suspension. The suspension was gently mixed and transferred into a CAPPOrigami reservoir. Using a multichannel pipette, 75 μL of the suspension was transferred into each well and mixed in the direction of increasing concentration. The control wells were mixed separately. The plates were covered with BioradMicroseal foil and incubated at 37 °C for 1 h. The plates (maximum two) were centrifuged for 10 min at 4000 rpm, followed by transferring of supernatant (60 μL) from each well into the corresponding wells in a clear ELISA plate. The absorbance (A) of each well was measured at λ = 414 nm using the software program Softmax(R) Pro.

K. pneumonia ATCC 13883 = format: cell-based, Klebsiella pneumoniae; settings: K. pneumoniae ATCC 13883; MHB-II, inoculum 5 × 10^5 CFU/mL, 37 °C, 18–24 h, visual read-out, triplicate
Protocol: as §4, §5, §6

P. aeruginosa ATCC 27853 [2] = settings: for log reduction of cell count within first hour of treatment: 1 h, MHB-II, 37 °C, shaking, n = 3
Protocol: The MIC constitutes a limited measure for antimicrobial activity. It indicates whether or not AMPs in different concentrations are able to prevent visible growth of bacteria.
Time-kill experiments were performed on balanced exponentially growing cultures of P. aeruginosa ATCC 27853. We used balanced cultures as described in Oddo et al.. Briefly, overnight cultures were prepared in MHB-II broth at 37 °C with shaking. Overnight cultures were back-diluted and grown exponentially for no less than 8–10 generations before experimentation. When experiments were done, exponentially growing cultures were back-diluted to an OD600 = 0.0005 approximately 5 × 10^5 CFU, into fresh MHB-II heated to 37 °C. Samples (250 μL) were taken at time points 0, 1, 3, 5, and 24 h. Samples were spun down at 8000× g for 5 min and washed in 1 mL of NaCl 0.9% before being spun down again and re-suspended in 250 μL NaCl 0.9%. From this, 10-fold dilution series were prepared and 10 μL samples were spot-plated in triplicate onto LB-agar. From the undiluted sample, 100 μL samples were also plated, i.e., giving a detection limit of 10 CFU/mL.

A. baumannii ATCC 19606 = format: cell-based, Acinetobacter baumannii; settings: MHB-II, inoculum 5 × 10^5 CFU/mL, 37 °C, 18–24 h, visual read-out, triplicate
Protocol: as §1, §2, §3

P. aeruginosa ATCC 27853 [3] = format: cell-based, Pseudomonas aeruginosa; settings: MHB-II, inoculum 5 × 10^5 CFU/mL, 37 °C, 18–24 h, visual read-out, triplicate
Protocol: as §1, §2, §3

Compound | %B at peak of elution in analytical HPLC (hydrophobicity) [1] | Minimum inhibitory concentration, EC (E. coli ATCC 25922) | %H, percent hemolytic activity against red blood cells at 150 μM (human erythrocytes) | Minimum inhibitory concentration, KP (K. pneumonia ATCC 13883) | also measured
CN[C@H](CC(C)C)C(=O)N[C@H]1C(=O)N[C@@H](CC(N)=O)C(=O)N[C@H]2C(=O)N[C@H]3C(=O)N[C@H](C(=O)N[C@H](C(=O)O)c4cc(O)cc(O)c4-c4cc3ccc4O)[C@H](O)c3ccc(c(Cl)c3)Oc3cc2cc(c3O[C@@H]2O[C@H](CO)[C@@H](O)[C@H](O)[C@H]2O[C@H]2C[C@](C)(N)[C@H](O)[C@H](C)O2)Oc2ccc(cc2Cl)[C@H]1O [Vancomycin, reference compound] | – | – | – | – | MIC (S. aureus ATCC 29213): 0.5 µg/mL (≈ 0.345 µM)
CCCC(=O)NCC[C@@H]1NC(=O)[C@H](CCN)NC(=O)[C@H](CCCNC(=N)N)NC(=O)[C@H](Cc2ccc3ccccc3c2)NC(=O)[C@H](CCN)NC(=O)[C@H](CC(N)=O)NC(=O)[C@H](CCN)NC(=O)[C@H](Cc2ccc3ccccc3c2)NC(=O)COCCOCCNC1=O [(C4)^5] (cyclo([Dab][2Nal]R[Dab][Dab](Butyryl)[AEEA][2Nal][Dab]N)) | 62% | 64 µg/mL (≈ 50 µM) | 5% | >64 µg/mL | %B at peak of elution in analytical HPLC (hydrophobicity) ([1]; listed as (C4)^7): 64%; %H, percent hemolytic activity against red blood cells at 150 μM (human erythrocytes; listed as (C4)^7): 4%
CC[C@H](C)CCCCC(=O)N[C@@H](CCN)C(=O)N[C@H](C(=O)N[C@@H](CCN)C(=O)N[C@H]1CCNC(=O)[C@H]([C@@H](C)O)NC(=O)[C@H](CCN)NC(=O)[C@H](CCN)NC(=O)[C@H](CC(C)C)NC(=O)[C@@H](CC(C)C)NC(=O)[C@H](CCN)NC1=O)[C@@H](C)O [Colistin, reference compound] (X1-[Dab]T[Dab][Dab][Dab][dL]L[Dab][Dab]T; lactam 4-C (inferred); N-terminus assumed) | – | 0.25 µg/mL (≈ 0.214 µM) | – | 0.5 µg/mL (≈ 0.428 µM) | log reduction of cell count within first hour of treatment (P. aeruginosa ATCC 27853 [2]; 5 × MIC ((C8)^5 40 μg/mL; colistin 2.5 μg/mL)): 4.5 log; cell count / growth after 24 h (P. aeruginosa ATCC 27853 [2]; 5 × MIC ((C8)^5 40 μg/mL; colistin 2.5 μg/mL), 24 h, detection limit 10 CFU/mL): No growth
CCCCCC(=O)NCC[C@@H]1NC(=O)[C@H](CCN)NC(=O)[C@H](CCCNC(=N)N)NC(=O)[C@H](Cc2ccc3ccccc3c2)NC(=O)[C@H](CCN)NC(=O)[C@H](CC(N)=O)NC(=O)[C@H](CCN)NC(=O)[C@H](Cc2ccc3ccccc3c2)NC(=O)COCCOCCNC1=O [(C6)^5] (cyclo([Dab][2Nal]R[Dab][Dab](Hexanoyl)[AEEA][2Nal][Dab]N)) | 65% | 32 µg/mL (≈ 24.5 µM) | 13% | >64 µg/mL | %B at peak of elution in analytical HPLC (hydrophobicity) ([1]; listed as (C6)^7): 69%; Minimum inhibitory concentration, AB (A. baumannii ATCC 19606): 64 µg/mL (≈ 48.9 µM); %H, percent hemolytic activity against red blood cells at 150 μM (human erythrocytes; listed as (C6)^7): 8%; Minimum inhibitory concentration, PA (P. aeruginosa ATCC 27853 [3]): 16 µg/mL (≈ 12.2 µM)
N=C(N)NCCC[C@@H]1NC(=O)[C@H](Cc2ccc3ccccc3c2)NC(=O)[C@H](CCN)NC(=O)[C@H](CC(N)=O)NC(=O)[C@H](CCN)NC(=O)[C@H](Cc2ccc3ccccc3c2)NC(=O)COCCOCCNC(=O)[C@H](Cc2ccc(-c3ccccc3)cc2)NC(=O)[C@H](CCN)NC1=O [S3(B)] (cyclo([Dab][2Nal]R[Dab][Bip][AEEA][2Nal][Dab]N)) | 71% | – | 77% | – | HD50 (hemolysis) (human erythrocytes; red cells of human): 69 µM; log reduction of cell count within first hour of treatment (P. aeruginosa ATCC 27853 [2]; 1 × MIC (8 μg/mL)): 2.5 log
